Broadly, the melting point is the temperature of the solid-liquid transition.

This is an account of results in patent US6344562B1, “Thiazole derivatives” (Hoffmann-La Roche Inc., priority 1998, dated 2002).

Counter-ions that a name gives are not always drawn.

On to `O=C(O)C(F)(F)F.O=C(O)C[C@H](NC(=O)CCCc1csc(NC(=O)NCc2ccccc2)n1)C(=O)NCc1ccccc1`, for which the melting point stood at 159 °C.

The molecule `Cl.Cl.O=C(O)CC(NC(=O)CNC(=O)c1csc(N=C2NCCN2)n1)c1cccnc1` (stereo not shown) showed a melting point of 170 to 172 °C.

As for `Cc1nc(NC(=N)N)sc1C(=O)NCCC(=O)NCCC(=O)O.Cl.Cl`, the melting point is 170 °C.

Molecule `O=C(O)CCNC(=O)CNC(=O)c1csc(NC(=O)NCc2ccccc2)n1` (as salt: hydrochloride) [Example 132, 3-[2-[[2-(3-benzyl-ureido)-thiazole-4-carbonyl]-amino]-acetylamino]-propionic acid] yielded a melting point of 174 °C.

For the molecule `O=C(O)CCCC(=O)CNC(=O)c1csc(NC(=O)NCc2ccccn2)n1` (as salt: hydrochloride) [Example 150, 5-oxo-6-{[2-(3-pyridin-2-ylmethyl-ureido)-thiazole-4-carbonyl]-amino}-hexanoic acid], the melting point was determined as 199 °C.

In the case of `CC(C)(C)OC(=O)C[C@H](NC(=O)CNC(=O)c1csc(NC(=O)NCc2ccccc2)n1)C(=O)OC(C)(C)C` (as salt: succinate) [Example 157, di-tert-butyl (S)-2-(2-{[2-(3-benzyl-ureido)-thiazole-4-carbonyl]-amino}-acetylamino)-succinate], the melting point fell in the range of 111 to 114 °C.

Turning to `O=C(O)C[C@H](NC(=O)CNC(=O)c1csc(NC(=O)NCc2ccccc2)n1)C(=O)NCc1ccccc1` (as salt: trifluoroacetate) [Example 130, (S)-N-benzyl-3-[2-[[2-(3-benzyl-ureido)-thiazole-4-carbonyl]-amino]-acetylamino]-succinamic acid], the melting point amounted to 193 °C.

In turn, `CC(C)[C@H](NC(=O)[C@H](CC(=O)O)NC(=O)CNC(=O)c1csc(NC(=O)NCc2ccccc2)n1)C(=O)O` (as salt: trifluoroacetate) [Example 142, (S)-2-[(S)-2-(2-{[2-(3-benzyl-ureido)-thiazole-4-carbonyl]-amino}-acetylamino)-3-carboxy-propionylamino]-3-methyl-butyric acid] gave a melting point of 93 to 98 °C.

Molecule `O=C(O)C[C@H](NC(=O)CNC(=O)c1csc(NC(=O)NCc2ccccc2)n1)C(=O)N[C@H](C(=O)O)c1ccccc1` (as salt: trifluoroacetate) [Example 144, (S)-3-[2-[[2-(3-benzyl-ureido)-thiazole-4-carbonyl]-amino]-acetyl-amino]-N-[(S)-carboxy-phenyl-methyl)-succinamic acid] had a melting point of 126 to 130 °C.

The molecule `O=C(O)C[C@H](NC(=O)CNC(=O)c1csc(NC(=O)NCc2ccccc2)n1)C(=O)O` (as salt: trifluoroacetate) [Example 158, (S)-2-(2-{[2-(3-benzyl-ureido)-thiazole-4-carbonyl]-amino}-acetylamino)-succinic acid] gave a melting point of 183 °C.

`O=C(O)C[C@H](NC(=O)CNC(=O)c1csc(NC(=O)NCc2ccccc2)n1)C(=O)NCc1cccnc1` (as salt: trifluoroacetate) [Example 164, (S)-3-[2-[[2-(3-benzyl-ureido)-thiazole-4-carbonyl]-amino]-acetylamino]-N-pyridin-3-ylmethyl-succinamic acid] displayed a melting point of 135 °C.

`CC(=O)O.Cc1nc(N=C2NCCCN2)sc1C(=O)NCCCCC(CC(=O)O)c1ccccc1.Cl` (racemic): the melting point was 60 to 63 °C.

For `N=C(N)Nc1nc(C(=O)NCC(=O)NC(CC(=O)O)c2ccccc2)cs1` (racemic) (as salt: hydrochloride) [Example 23, rac-3-[2-[(2-guanidino-thiazole-4-carbonyl)-amino]-acetylamino]-3-phenyl-propionic acid], the melting point was 202 to 205 °C.

`CCc1nc(NC(=N)N)sc1-c1cccc(NC(=O)CC(CC(=O)O)c2ccccc2)c1` (racemic) (as salt: salt) [Example 91, rac-4-[3-(4-ethyl-2-guanidino-thiazol-5-yl)-phenylcarbamoyl]-3-phenyl-butyric acid]: the melting point is 186 to 188 °C.

Molecule `CCOC(=O)CC(CC(=O)CNC(=O)c1csc(NC(=O)NCc2ccccc2)n1)C(=O)OCC` (racemic) (as salt: succinate) [Example 155, diethyl rac-2-[3-[[2-(3-benzyl-ureido)-thiazole-4-carbonyl]-amino]-2-oxo-propyl]-succinate] displayed a melting point of 126 to 129 °C.

`CCOC(=O)CC(NC(=O)c1cccc(NC(=O)c2sc(NC(=N)N)nc2C)c1)c1ccccc1` (racemic) [Example 10, ethyl rac-3-[3-[(2-guanidino-4-methyl-thiazole-5-carbonyl)-amino]-benzoylamino]-3-phenyl-propionate]: the melting point was 177 °C.

Molecule `CCOC(=O)CC(CCCNC(=O)c1csc(NC(=O)NCc2ccccc2)n1)c1ccccc1` (racemic) [Example 14, ethyl (RS)-6-{[2-(3-benzyl-ureido)-thiazole-4-carbonyl]-amino}-3-phenyl-hexanoate] yielded a melting point of 93 °C.

Turning to `N=C(N)Nc1nc(C(=O)NCCCC(CC(=O)O)c2ccccc2)cs1` (racemic) [Example 17, (RS)-6-[(2-guanidino-thiazole-4-carbonyl)-amino]-3-phenyl-hexanoic acid], the melting point was found to be 230 °C.

In turn, `CCOC(=O)CC(NC(=O)c1cccc(NC(=O)c2csc(NC(=N)N)n2)c1)c1ccccc1` (racemic) [Example 18, ethyl (RS)-3-[3-[(2-guanidino-thiazole-4-carbonyl)-amino]-benzoylamino]-3-phenyl-propionate] had a melting point of 117 °C.

`N=C(N)Nc1nc(C(=O)Nc2cccc(C(=O)NC(CC(=O)O)c3ccccc3)c2)cs1` (racemic) [Example 19, (RS)-3-{3-[(2-guanidino-thiazole-4-carbonyl)-amino]-benzoylamino}-3-phenyl-propionic acid] displayed a melting point of 235 °C.

As to `CCOC(=O)CC(NC(=O)CNC(=O)c1csc(NC(=N)N)n1)c1ccccc1` (racemic) [Example 22, ethyl rac-3-[2-[(2-guanidino-thiazole-4-carbonyl)-amino]-acetylamino]-3-phenyl-propionate], the melting point was 177 to 178 °C (dec.).

As to `CCOC(=O)CC(NC(=O)CCNC(=O)c1csc(NC(=N)N)n1)c1ccccc1` (racemic) [Example 24, ethyl rac-3-[3-[(2-guanidino-thiazole-4-carbonyl)-amino]-propionylamino]-3-phenyl-propionate], the melting point lay within 85 to 87 °C.

In the case of `N=C(N)Nc1nc(C(=O)NCCC(=O)NC(CC(=O)O)c2ccccc2)cs1` (racemic) [Example 25, rac-3-[3-[(2-guanidino-thiazole-4-carbonyl)-amino]-propionylamino]-3-phenyl-propionic acid], the melting point was 105 to 107 °C (dec.).

As to `CCOC(=O)CC(NC(=O)CCNC(=O)c1sc(NC(=N)N)nc1C)c1ccccc1` (racemic) [Example 26, ethyl rac-3-[3-[(2-guanidino-4-methyl-thiazole-5-carbonyl)-amino]-propionylamino]-3-phenyl-propionate], the melting point fell in the range of 106 to 107 °C.

`CCOC(=O)CC(NC(=O)c1cccc(NC(=O)c2cnc(NC(=N)N)s2)c1)c1ccccc1` (racemic) [Example 72, ethyl (RS)-3-{3-[(2-guanidino-thiazole-5-carbonyl)-amino]-benzoylamino}-3-phenyl-propionate]: the melting point was determined as 149 °C.

For `N=C(N)Nc1ncc(C(=O)Nc2cccc(C(=O)NC(CC(=O)O)c3ccccc3)c2)s1` (racemic) [Example 73, (RS)-3-[3-[(2-guanidino-thiazole-5-carbonyl)-amino]-benzoylamino]-3-phenyl-propionic acid], the melting point stood at 196 °C.

Take `CCOC(=O)CC(NC(=O)c1cc(NC(=O)c2sc(NC(=N)N)nc2C)cc(OCc2ccccc2)c1)c1ccccc1` (racemic) [Example 74, ethyl (RS)-3-{3-benzyloxy-5-[(2-guanidino-4-methyl-thiazole-5-carbonyl)-amino]-benzoylamino}-3-phenyl-propionate]: the melting point stood at 116 °C.

As to `CCOC(=O)CC(NC(=O)c1ccc(OC)c(NC(=O)c2sc(NC(=N)N)nc2C)c1)c1ccccc1` (racemic) [Example 78, ethyl (RS)-3-{3-[(2-guanidino-4-methyl-thiazole-5-carbonyl)-amino]-4-methoxy-benzoylamino}-3-phenyl-propionate], the melting point fell in the range of 123 to 126 °C.

Turning to `N=C(N)Nc1nc(C(=O)NCC(=O)NC(CC(=O)O)c2cccnc2)cs1` (racemic) [Example 81, (RS)-3-{2-[(2-guanidino-thiazole-4-carbonyl)-amino]-acetylamino}-3-pyridin-3-yl-propionic acid], the melting point worked out at 186 °C.

Turning to `CCOC(=O)CC(CCCCNC(=O)c1sc(NC(=N)N)nc1C)c1ccccc1` (racemic) [Example 84, ethyl (RS)-7-[(2-guanidino-4-methyl-thiazole-5-carbonyl)-amino]-3-phenyl-heptanoate], the melting point came to 138 °C.

Turning to `Cc1nc(NC(=N)N)sc1C(=O)NCCCCC(CC(=O)O)c1ccccc1` (racemic) [Example 85, (RS)-7-[(2-guanidino-4-methyl-thiazole-5-carbonyl)-amino]-3-phenyl-heptanoic acid], the melting point came to 125 °C.

In the case of `CCCc1nc(NC(=N)N)sc1-c1cccc(NC(=O)CC(CC(=O)O)c2ccccc2)c1` (racemic) [Example 92, rac-4-[3-(2-guanidino-4-propyl-thiazol-5-yl)-phenylcarbamoyl]-3-phenyl-butyric acid], the melting point is 245 to 247 °C (dec.).

`CCCCCc1nc(NC(=N)N)sc1-c1cccc(NC(=O)CC(CC(=O)O)c2ccccc2)c1` (racemic) [Example 94, rac-4-[3-(2-guanidino-4-pentyl-thiazol-5-yl)-phenylcarbamoyl]-3-phenyl-butyric acid]: the melting point was 186 to 188 °C (dec.).

The molecule `CCOC(=O)CC(CCCNC(=O)c1csc(NC(=O)NCc2ccccc2)n1)C(=O)NCc1ccccc1` (racemic) [Example 147, ethyl rac-3-benzylcarbamoyl-6-{[2-(3-benzyl-ureido)-thiazole-4-carbonyl]-amino}-hexanoate] had a melting point of 128 °C.
